From the RepoRT retention time repository (doi:10.1093/pcp/pcn183)
Structures can show the parent of a compound that is named as a salt.

Assay: RP, Waters ACQUITY UPLC BEH C18, 38 °C, 0.24 mL/min; A: water + 0.1% formic acid, pH 3; B: acetonitrile + 0.1% formic acid, pH 3; gradient (min/%B) 0/0 0.25/0 0.4/9 0.8/17 1.9/100 2.1/100 2.11/0 3/0
Settings: stereoisomer not certain

SMILES | LC retention time [min]
CC(C)[C@H](N)C(=O)O [L-Valine] | 0.25
CCCCc1ccc(C(=O)O)nc1 [Fusaric acid] | 1.37
CSCC[C@H](N)C(=O)O [L-Methionine] | 0.31
COc1cc(-c2[o+]c3cc(O)cc(O)c3cc2OC2OC(CO)C(O)C(O)C2O)cc(O)c1O (stereo not drawn) [Petunidin-3-O-beta-glucopyranoside] | 1.22
O=C(O)C(O)C(O)C(O)C(O)C(=O)O (stereo not drawn) [mucic acid] | 2.13
NCCC(=O)NC(Cc1cnc[nH]1)C(=O)O [L-Carnosine] | 0.16
NOCC(=O)O [Aminooxyacetic acid Hemihydrochloride] | 0.17
O=C(O)CNC(=O)Cc1ccccc1 [Phenaceturic acid] | 1.36
c1cnc2c(c1)ccc1cccnc12 [1,10-Phenanthroline monohydrate] | 1.18
COc1cc(-c2[o+]c3cc(O)cc(O)c3cc2OC2OC(CO)C(O)C(O)C2O)cc(OC)c1O (stereo not drawn) [Oenin] | 1.29
O=C(O)CCl [Chloroacetic acid] | 0.36
C[N+](C)(C)[O-] [Trimethylamine N-oxide dihydrate] | 0.18
CC1OC(OC2C(Oc3cc(O)c4c(=O)c(O)c(-c5ccc(O)cc5)oc4c3)OC(CO)C(O)C2O)C(O)C(O)C1O (stereo not drawn) [kaempferol-7-O-neohesperidoside] | 1.44
CN(C)c1ccccc1 [N,N-Dimethylaniline] | 1.11
c1ccc(NC[C@@H]2CCCN2)cc1 [(S)-(+)-2-(anilinomethyl)pyrrolidine] | 1.27
NC(=O)c1ncn(C2OC(COP(=O)(O)O)C(O)C2O)c1N (stereo not drawn) | 0.32
O=C(C=Cc1ccc(O)cc1)OCC1OC(Oc2c(-c3ccc(O)cc3)oc3cc(O)cc(O)c3c2=O)C(O)C(O)C1O (stereo not drawn) [Tiliroside] | 1.57
CC(=O)NC(CC(=O)O)C(=O)O (racemic) [N-Acetyl-DL-aspartic acid] | 0.31
C[N+](C)(C)CCO [Choline chloride] | 0.17
CCCCCCCCCC(=O)OCC(O)COP(=O)([O-])OCC[N+](C)(C)C (stereo not drawn) [Phosphocholine,1-Decanoyl-2-Hydroxy-sn-Glycero-3-] | 1.65
CSCC[C@H](N)CC(=O)O [L-beta-homomethionine-HCl] | 0.66
O=C1CC(c2ccc(O)cc2)Oc2cc(O)cc(O)c21 (stereo not drawn) [naringenin] | 1.67
Nc1nc2nc[nH]c2c(=O)[nH]1 [Guanine] | 0.32
COc1cc(CC(=O)O)ccc1O [Homovanillic acid] | 1.33
NCC(=O)CCC(=O)O [delta-Aminolevulinic acid hydrochloride] | 0.18
CCCCCCCCCCCCCCCCC [Heptadecane] | 1.81
O=C(CCc1ccccc1)c1c(O)cc(O)cc1OC1OC(CO)C(O)C(O)C1O (stereo not drawn) [4-deoxyphloridzin] | 1.5

SMILES | LC retention time [min]
N[C@@H](Cc1cnc[nH]1)C(=O)O [L-Histidine] | 0.15
NC(=O)CCCCC1CCSS1 (racemic) [DL-Thioctamide] | 1.57
Nc1ccn(C2CC(O)C(CO)O2)c(=O)n1 (stereo not drawn) [2'-Deoxycytidine] | 0.45
OCC1OC(OC2(CO)OC(CO)C(O)C2O)C(O)C(O)C1O (stereo not drawn) [Sucrose] | 0.22
CC(N)(Cc1cnc[nH]1)C(=O)O (racemic) [alpha-Methyl-DL-histidine dihydrochloride] | 0.16
O=c1ccn(C2OC(CO)C(O)C2O)c(=O)[nH]1 (stereo not drawn) [Uridine] | 0.66
CC(N)CC(=O)O (racemic) [DL-beta-Aminobutyric acid] | 0.18
COc1cc(-c2[o+]c3cc(O)cc(O)c3cc2OC2OCC(O)C(O)C2O)ccc1O (stereo not drawn) [Peonidin-3-O-alpha-arabinopyranoside] | 1.3
CC=C(C)C(=O)NCC(=O)O [N-Tigloylglycine] | 1.18
OCCN(CCO)CCO [2,2',2''-Nitrilotriethanol] | 0.17
COc1cc(-c2[o+]c3cc(O)cc(OC4OC(CO)C(O)C(O)C4O)c3cc2OC2OC(CO)C(O)C(O)C2O)cc(OC)c1O (stereo not drawn) [Malvin chloride] | 1.15
Cc1ncc(CO)c(C=O)c1O [pyridoxal hydrochrolide] | 0.38
O=c1cc[nH]cc1 [4-Hydroxypyridine] | 0.25
Oc1cccnc1 [3-Hydroxypyridine] | 0.24
OCC1OC(Oc2cc(O)cc3[o+]c(-c4ccc(O)c(O)c4)c(OC4OC(CO)C(O)C(O)C4OC4OCC(O)C(O)C4O)cc23)C(O)C(O)C1O (stereo not drawn) | 1.12
O=c1ccc2ccc(O)c(O)c2o1 [Daphnetin] | 1.34
O=c1cc(-c2ccc(O)c(O)c2)oc2c(C3OC(CO)C(O)C(O)C3O)c(O)cc(O)c12 (stereo not drawn) [Orientin] | 1.35
O=C(O)[C@@H]1CCCN1 [L-Proline] | 0.19
COC1C(O)C(O)C(O)C(O)C1O [D-Pinitol] | 0.17
O=C(O)C1CCCCN1 (racemic) [DL-Pipecolinic acid] | 0.27
Nc1ncnc2c1ncn2C1OC(CO)C(OP(=O)(O)O)C1O (stereo not drawn) [Adenosine 3'-monophosphate From Yeast] | 0.64
O=C(O)C1(O)CC(O)C(O)C(O)C1 [D-(-)-Quinic acid] | 0.19
Cc1ncsc1CCO [4-Methyl-5-thiazoleethanol] | 1.08
O=C(O)CNC(=O)c1ccccc1 [Hippuric Acid] | 1.29
O=C1O[C@H]([C@@H](O)CO)C(O)=C1O [L-Ascorbic acid] | 1.15
C=C(CC(=O)O)C(=O)O [Itaconic acid] | 1.09

The next lines start with the values.

LC retention time [min] | SMILES
0.56 | CCCCCCCCCCCCCCCC(O)C(CO)NC(=O)CCCCCCC [N-Octanoylsphinganine,D-erythro]
0.36 | Nc1ccn(C2OC(CO)C(OP(=O)(O)O)C2O)c(=O)n1 (stereo not drawn) [Cytidine-3'-monophosphate]
1.61 | COc1ccc(-c2coc3cc(OC4OC(CO)C(O)C(O)C4O)cc(O)c3c2=O)cc1 (stereo not drawn) [Sissotrin]
1.49 | CC(C)c1cccc(O)c(=O)c1 [Hinokitiol]
0.17 | O=C(O)[C@@H]1C[C@@H](O)CN1 [trans-4-Hydroxy-L-proline]
1.57 | Cc1cc2nc3cc(C)c(N)cc3[n+](-c3ccccc3)c2cc1N [Safranine]
1.24 | Cn1c(=O)c2c(ncn2C)n(C)c1=O [Caffeine,Anhydrous]
1.38 | O=C(O)CCc1ccc(O)cc1 [3-(4-Hydroxyphenyl)-propionic acid]
0.19 | Cc1ncc(C[n+]2csc(CCOP(=O)(O)O)c2C)c(N)n1 [Thiamine monophosphate chloride dihydrate]
1.16 | CC(CCC(=O)O)C(=O)O (stereo not drawn) [2-Methylglutaric Acid]
1.43 | O=c1c(OC2OCC(O)C(O)C2O)c(-c2ccc(O)c(O)c2)oc2cc(O)cc(O)c12 [Quercetin-3-D-xyloside]
1.07 | Nc1ncnc2c1ncn2C1CC(O)C(CO)O1 (stereo not drawn) [2'-Deoxyadenosine monohydrate]
0.19 | Nc1ccnc(=O)[nH]1 [Cytosine]
0.22 | OCC1OC(OC2C(CO)OC(OC3C(CO)OC(O)C(O)C3O)C(O)C2O)C(O)C(O)C1O (stereo not drawn) [Maltotriose hydrate]
1.93 | CCC=CCC1C(=O)CCC1CC(=O)OC (stereo not drawn) [Methyl Jasmonate]
0.54 | CC(C(=O)O)C(=O)O [Methylmalonic acid]
1.38 | O=C(O)Cc1ccccc1O [2-Hydroxyphenylacetic acid]
1.52 | COc1cc(C=CC=O)ccc1O [4-Hydroxy-3-methoxycinnamaldehyde]

LC retention time [min] | SMILES
1.56 | COc1ccc(C2CC(=O)c3c(O)cc(OC4OC(CO)C(O)C(O)C4OC4OC(C)C(O)C(O)C4O)cc3O2)cc1 (stereo not drawn) [Poncirin]
1.12 | CCC(C(=O)O)C(=O)O [Ethylmalonic acid]
0.14 | NCC(O)CCC(N)C(=O)O (racemic) [DL-5-Hydroxylysine  hydrochloride]
0.18 | CC[C@H](N)C(=O)O [L-2-Aminobutyric acid]
1.13 | Nc1c(O)cccc1C(=O)O [3-Hydroxyanthranilic acid]
0.24 | NC(=O)c1ccc[n+](C2OC(COP(=O)([O-])O)C(O)C2O)c1 (stereo not drawn) [beta-Nicotinamide mononucleotide]
1.87 | CCCCCC1CCC(=O)O1 (stereo not drawn) [4-Nonanolide]
0.26 | O=c1ccn(C2OC(COP(=O)(O)O)C(O)C2O)c(=O)[nH]1 (stereo not drawn) [Uridine-5'-monophosphate]
1.4 | CC1OC(OCC2OC(Oc3c(-c4ccccc4O)oc4cc(O)cc(O)c4c3=O)C(O)C(O)C2O)C(O)C(O)C1O (stereo not drawn) [Datiscin]
0.23 | NCCCCC(=O)O [5-Aminovaleric acid]
0.17 | O=CC(O)CO (racemic) [DL-Glyceraldehyde]
0.18 | OCC1OC(OC2C(O)C(O)COC2(O)CO)C(O)C(O)C1O (stereo not drawn)
0.25 | CCC[C@H](N)C(=O)O [L-Norvaline]
0.33 | CC(=O)OC(CC(=O)O)C[N+](C)(C)C [O-Acety-L-carnitine hydrochloride]
0.29 | NC(=NCCCC(N)C(=O)O)NC(CC(=O)O)C(=O)O (stereo not drawn) [Argininosuccinic acid disodium salt]
0.18 | NC(=O)NCCC[C@H](N)C(=O)O [L-Citrulline]
1.42 | O=C(O)C(O)Cc1ccccc1 (racemic) [DL-3-Phenyllactic acid]
